Experimental data: patent US7053107B2, “Indazole compounds and pharmaceutical compositions for inhibiting protein kinases, and methods for their use” (Agouron Pharmaceuticals, Inc., priority 2002, dated 2006)

Assays:
[1] = target: T1, unphosphorylated VEGF-R2Δ50 (Homo sapiens, UniProt P35968, DEL940-989/E990V); test: VEGF-R2 coupled spectrophotometric assay, unphosphorylated construct (FLVK); assay type: biochemical; details: % inhibition at 50 nM compound; read-out: FLVK Ki % inh @ 50 nM
T1 construct: VEGF-R2Δ50 contains residues 806–939 and 990–1171; made in house; host or cells: baculovirus/insect cell system
T1 sequence (P35968 with tags, fused parts or gaps DEL940-989/E990V limits assumed): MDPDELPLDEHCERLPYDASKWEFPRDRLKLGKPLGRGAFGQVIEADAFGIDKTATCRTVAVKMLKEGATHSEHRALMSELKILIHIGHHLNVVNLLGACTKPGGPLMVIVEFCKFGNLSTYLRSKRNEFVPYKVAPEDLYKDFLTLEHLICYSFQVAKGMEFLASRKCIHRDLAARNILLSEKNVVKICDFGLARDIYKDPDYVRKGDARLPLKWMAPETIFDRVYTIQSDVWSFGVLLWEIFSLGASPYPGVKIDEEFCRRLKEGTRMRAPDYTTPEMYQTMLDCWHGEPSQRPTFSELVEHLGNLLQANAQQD
Text: This construct determines the ability of a test compound to inhibit tyrosine kinase activity. A construct (VEGF-R2Δ50) of the cytosolic domain of human vascular endothelial growth factor receptor 2 (VEGF-R2) lacking the 50 central residues of the 68 residues of the kinase insert domain was expressed in a baculovirus/insect cell system. Of the 1356 residues of full-length VEGF-R2, VEGF-R2Δ50 contains residues 806–939 and 990–1171, and also one point mutation (E99OV) within the kinase insert domain relative to wild-type VEGF-R2. Autophosphorylation of the purified construct was performed by incubation of the enzyme at a concentration of 4 μM in the presence of 3 mM ATP and 40 mM MgCl2 in 100 mM HEPES, pH 7.5, containing 5% glycerol and 5 mM DTT, at 4° C. for 2 h. […] See Parast et al., Biochemistry, 37,16788–16801 (1998).
(§1) The production of ADP from ATP that accompanies phosphoryl transfer was coupled to oxidation of NADH using phosphoenolpyruvate (PEP) and a system having pyruvate kinase (PK) and lactic dehydrogenase (LDH). The oxidation of NADH was monitored by following the decrease of absorbance at 340 nm (e340=6.22 cm^−1 mM^−1) using a Beckman DU 650 spectrophotometer. Assay conditions for phosphorylated VEGF-R2A50 (indicated as FLVK-P in the tables below) were the following: 1 mM PEP; 250 μM NADH; 50 units of LDH/mL; 20 units of PK/mL; 5 mM DTT; 5.1 mM poly(E4Y1); 1 mM ATP; and 25 mM MgCl2 in 200 mM HEPES, pH 7.5. Assay conditions for unphosphorylated VEGF-R2Δ50 (indicated as FLVK in the tables) were the following: 1 mM PEP; 250 μM NADH; 50 units of LDH/mL; 20 units of PK/mL; 5 mM DTT; […]; 3 mM ATP; and 60 mM MgCl2 and 2 mM MnCl2 in 200 mM HEPES, pH 7.5. Assays were initiated with 5 to 40 nM of enzyme. Ki values were determined by measuring enzyme activity in the presence of varying concentrations of test compounds. The data were analyzed using Enzyme Kinetic and Kaleidagraph software.

FGF-R1 = target: T2, FGF-R1 (Homo sapiens, UniProt P11362, C488A/C584S/L457V); test: Fibroblast Growth Factor (FGF-R) spectrophotometric assay; assay type: biochemical; details: 1 μM compound; read-out: FGF-P % inhibit @1 μM
T2 construct: starting from the endogenous methionine residue 456 to glutamate 766; made in house; host or cells: baculovirus vector expression system
T2 sequence (P11362 456-766 L457V/C488A/C584S): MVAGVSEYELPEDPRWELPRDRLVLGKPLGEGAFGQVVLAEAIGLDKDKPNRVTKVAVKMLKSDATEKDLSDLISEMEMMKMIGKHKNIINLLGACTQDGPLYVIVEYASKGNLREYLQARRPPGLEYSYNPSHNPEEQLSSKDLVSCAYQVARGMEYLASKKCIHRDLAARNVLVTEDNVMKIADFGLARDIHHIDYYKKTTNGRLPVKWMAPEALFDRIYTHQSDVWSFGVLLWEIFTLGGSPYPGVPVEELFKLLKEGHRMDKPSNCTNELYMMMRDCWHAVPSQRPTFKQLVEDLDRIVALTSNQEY
Text: The intracellular kinase domain of human FGF-R1 was expressed using the baculovirus vector expression system starting from the endogenous methionine residue 456 to glutamate 766, according to the residue numbering system of Mohammadi et al., Mol. Cell. Biol., 16, 977–989 (1996). In addition, the construct also has the following 3 amino acid substitutions: L457V, C488A, and C584S.
as §1
The spectrophotometric assay was carried out as described above for VEGF-R2, except for the following changes in concentration: FGF-R=50 nM, ATP=2 mM, and poly(E4Y1)=15 mM.

[2] = tested on: human umbilical vein endothelial cells (HUVEC); test: HUVEC Proliferation Assay (VEGF-stimulated); assay type: cell-based
Description: This assay determines the ability of a test compound to inhibit the growth factor-stimulated proliferation of human umbilical vein endothelial cells (“HUVEC”). HUVEC cells (passage 3–4, Clonetics, Corp.) were thawed into EGM2 culture medium (Clonetics Corp) in T75 flasks. Fresh EGM2 medium was added to the flasks 24 hours later. Four or five days later, cells were exposed to another culture medium (F12K medium supplemented with 10% fetal bovine serum (FBS), 60 μg/mL endothelial cell growth supplement (ECGS), and 0.1 mg/mL heparin). Exponentially-growing HUVEC cells were used in experiments thereafter. Ten to twelve thousand HUVEC cells were plated in 96-well dishes in 100 μl of rich, culture medium (described above). The cells were allowed to attach for 24 hours in this medium. The medium was then removed by aspiration and 105 μl of starvation media (F12K+1% FBS) was added to each well. After 24 hours, 15 μl of test agent dissolved in 1% DMSO in starvation medium or this vehicle alone was added into each treatment well; the final DMSO concentration was 0.1%. One hour later, 30 μl of VEGF (30 ng/mL) in starvation media was added to all wells except those containing untreated controls; the final VEGF concentration was 6 ng/mL. Cellular proliferation was quantified 72 hours later by MTT dye reduction, at which time cells were exposed for 4 hours MTT (Promega Corp.). Dye reduction was stopped by addition of a stop solution (Promega Corp.) and absorbance at 595λ was determined on a 96-well spectrophotometer plate reader.
IC50 values were calculated by curve-fitting the response of A^595 to various concentrations of the test agent; typically, seven concentrations separated by 0.5 log were employed, with triplicate wells at each concentration. For screening compound library plates, one or two concentrations (one well per concentration) were employed, and the % inhibition was calculated by the following formula: % inhibition=(control−test)[…](control−starvation) where
control=A^595 when VEGF is present without test agent
test=A^595 when VEGF is present with test agent
starvation=A^595 when VEGF and test agent are both absent.

PDGFRβ = target: T3, PDGFRβ (Homo sapiens, UniProt P09619); test: PAE-PDGFRβ Phosphorylation in PAE-PDGFRB Cells Assay; assay type: cell-based; details: PAE cells overexpressing human PDGFRβ; read-out: PAE PDGFR autophos IC50
T3 construct: expressed in transfected cells; host or cells: porcine aorta endothelial (PAE) cells
T3 sequence (P09619 33-1106): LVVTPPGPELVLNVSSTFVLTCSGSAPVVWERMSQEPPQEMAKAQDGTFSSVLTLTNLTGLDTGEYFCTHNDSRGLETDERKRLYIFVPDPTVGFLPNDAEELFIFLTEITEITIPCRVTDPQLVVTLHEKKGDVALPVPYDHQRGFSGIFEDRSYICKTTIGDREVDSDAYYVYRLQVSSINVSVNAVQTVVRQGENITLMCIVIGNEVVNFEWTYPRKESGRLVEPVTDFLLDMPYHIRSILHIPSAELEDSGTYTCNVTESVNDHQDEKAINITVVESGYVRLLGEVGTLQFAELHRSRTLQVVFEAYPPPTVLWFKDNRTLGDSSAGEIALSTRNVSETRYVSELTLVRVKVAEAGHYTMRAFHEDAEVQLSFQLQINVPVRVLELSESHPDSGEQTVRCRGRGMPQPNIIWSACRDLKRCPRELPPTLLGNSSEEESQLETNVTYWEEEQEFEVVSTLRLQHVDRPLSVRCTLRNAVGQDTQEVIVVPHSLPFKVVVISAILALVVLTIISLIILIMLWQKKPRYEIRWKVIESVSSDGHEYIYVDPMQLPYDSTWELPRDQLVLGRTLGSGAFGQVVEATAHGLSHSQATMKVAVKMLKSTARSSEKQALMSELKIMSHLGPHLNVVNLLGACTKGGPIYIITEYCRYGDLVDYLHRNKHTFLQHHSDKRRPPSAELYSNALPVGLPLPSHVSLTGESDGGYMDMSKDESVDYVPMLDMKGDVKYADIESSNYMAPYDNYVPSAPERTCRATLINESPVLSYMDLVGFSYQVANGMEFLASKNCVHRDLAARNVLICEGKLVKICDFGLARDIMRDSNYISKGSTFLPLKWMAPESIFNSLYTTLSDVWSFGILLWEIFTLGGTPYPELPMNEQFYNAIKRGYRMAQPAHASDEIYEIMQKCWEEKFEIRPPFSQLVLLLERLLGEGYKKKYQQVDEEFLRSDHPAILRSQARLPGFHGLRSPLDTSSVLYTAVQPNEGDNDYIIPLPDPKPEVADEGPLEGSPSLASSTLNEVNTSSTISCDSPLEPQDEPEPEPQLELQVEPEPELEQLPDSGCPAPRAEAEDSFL
Description: This assay determines the ability of a test compound to inhibit the autophosphorylation of PDGFRβ in porcine aorta endothelial (PAE)-PDGFRβ cells. PAE cells that overexpress human PDGFRβ were used in this assay. The cells were cultured in Ham's F12 media supplemented with 10% fetal bovine serum (FBS) and 400 ug/ml G418. Twenty thousands cells were seeded in each well of a 96-well plate in 50 μL of growth media and allowed to attach for 6 hours at 37° C. Cells were then exposed to the starvation media (Ham's F12 media supplemented with 0.1% FBS) for 16 hours. After the starvation period was over, 10 μL of test agent in 5% DMSO in starvation media were added to the test wells and 10 μL of the vehicle (5% DMSO in starvation media) were added into the control wells. The final DMSO concentration in each well was 0.5%. Plates were incubated at 37° C. for 1 hour and the cells were then stimulated with 1 μg/mL PDGF-BB (R & D System) in the presence of 2 mM Na3VO4 for 8 minutes. The cells were washed once with 1 mm Na3VO4 in HBSS and lysed by adding 50 μL per well of lysis buffer. One hundred μL of dilution buffer were then added to each well and the diluted cell lysate was transferred to a 96-well goat ant-rabbit coated plate (Pierce), which was pre-coated with Rabbit anti Human PDGFRβ antibody (Santa Cruz). The plates were incubated at room temperature for 2 hours and washed seven times with 1% Tween 20 in PBS. HRP-PY20 (Santa Cruz) was diluted and added to the plate for a 30-minute incubation. Plates were then washed again and TMB peroxidase substrate (Kirkegaard & Perry) was added for a 10-minute incubation. One hundred μL of 0.09 N H2SO4 was added into each well of the 96-well plate to stop the reaction. Phosphorylation status was assessed by spectrophotometer reading at 450 nm. IC50 values were calculated by curve fitting using a four-parameter analysis.

| SMILES | inhibition at 0.05 µM [1] | inhibition at 1 µM (FGF-R1) | IC50 (PDGFRβ) | IC50 [2] |
| --- | --- | --- | --- | --- |
| C#CCNC(=O)c1ccccc1Nc1ccc2c(C(=O)NC)n[nH]c2c1 [Example 1(k), 6-(2-Prop-2-ynylcarbamoyl-phenylamino)-1H-indazole-3-carboxylic acid methylamide] | 27% | 12% | – | > 10 nM |
| C#CCNC(=O)c1ccccc1Nc1ccc2c(/C=C/c3cc(C)cc(C)n3)n[nH]c2c1 [Example 13, N-(prop-2-ynyl)-2-{3-[(E)-2-(2,4-dimethyl-pyridin-2-yl)-vinyl]-1H-indazol-6-ylamino}-benzamide] | 80% | 63% | 6 nM | – |
| CC(=O)OCC#CCNC(=O)c1ccccc1Nc1ccc2c(/C=C/c3cc(C)cc(C)n3)n[nH]c2c1 [Example 20, Acetic acid 4-(2-{3-[(E)-2-(4,6-dimethyl-pyridin-2-yl)-vinyl]-1H-indazol-6-ylamino}-benzoylamino)-but-2-ynyl ester] | 91% | 35% | – | 0.084 nM |
| Cc1cc(C)nc(/C=C/c2n[nH]c3cc(Nc4ncccc4C(=O)NCC#CC4CC4)ccc23)c1 [Example 25, N-(3-Cyclopropyl-prop-2-ynyl)-2-{3-[(E)-2-(4,6-dimethyl-pyridin-2-yl)-vinyl]-1H-indazol-6-ylamino}-nicotinamide] | 64% | 13% | – | 3 nM |
| O=C(NCC#CC1CC1)c1ccccc1Nc1ccc2c(/C=N/n3cccc3)n[nH]c2c1 [Example 55, N-(3-Cyclopropyl-prop-2-ynyl)-2-[3-(pyrrol-1-yliminomethyl)-1H-indazol-6-ylamino]-benzamide] | 97% | 67% | 3.7 nM | 0.2 nM |
| O=C(NCC#CCO)c1ccccc1Nc1ccc2c(/C=N/n3cccc3)n[nH]c2c1 [Example 57, N-(4-Hydroxy-but-2-ynyl)-2-[3-(pyrrol-1-yliminomethyl)-1H-indazol-6-ylamino]-benzamide] | 91% | 52% | 1.3 nM | < 1.8 nM |
| C#CCNC(=O)c1ccccc1Nc1ccc2c(/C=N/n3cccc3)n[nH]c2c1 [Example 63, N-Prop-2-ynyl-2-[3-(pyrrol-1-yliminomethyl)-1H-indazol-6-ylamino]-benzamide] | 85% | 63% | 2.4 nM | 0.1 nM |

The next lines start with results.

| inhibition at 0.05 µM [1] | inhibition at 1 µM (FGF-R1) | IC50 (PDGFRβ) | SMILES | IC50 [2] |
| --- | --- | --- | --- | --- |
| 72% | – | 4.5 nM | C=C(C)CNC(=O)c1ccccc1Nc1ccc2c(/C=C/c3cc(C)ccn3)n[nH]c2c1 [Example 34, N-(2-Methyl-allyl)-2-{[(E)-2-(4-methyl-pyridin-2-yl)-vinyl]-1H-indazol-6-ylamino}-benzamide] | – |
| 96% | 76% | 4.7 nM | Cc1ccnc(/C=C/c2n[nH]c3cc(Nc4ccccc4C(=O)NCc4cccc(C)n4)ccc23)c1 [Example 39, N-(6-Methyl-pyridin-2-ylmethyl)-2-{3-[2-(4-methyl-pyridin-2-yl)-vinyl]-1H-indazol-6-ylamino}-benzamide] | – |
| 28% | 24% | – | Cc1ccnc(/C=C/c2n[nH]c3cc(Nc4ccccc4C(=O)NCc4nc5ccccc5n4C)ccc23)c1 [Example 45, N-(1-Methyl-1H-benzoimidazol-2-ylmethyl)-2-{3-[(E)2-(4-methyl-pyridin-2-yl)-vinyl]-1H-indazol-6-ylamino}-benzamide] | – |
| 11% | 36% | – | Cc1ccnc(/C=C/c2n[nH]c3cc(Nc4ccccc4C(=O)NCc4nccn4C)ccc23)c1 [Example 49, N-(1-Methyl-1H-imidazol-2-ylmethyl)-2-{3-[2-(4-methyl-pyridin-2-yl)-vinyl]-1H-indazol-6-ylamino}-benzamide] | – |
| 82% | 52% | – | Cc1ccnc(/C=C/c2n[nH]c3cc(Nc4ccccc4C(=O)NCC#CCO)ccc23)c1 [Example 51, 2-{3-[(E)-2-(4-Methyl-pyridin-2-yl)-vinyl]-1H-indazol6-ylamino}-N-(4-hydroxy-but-2-ynyl)-benzamide] | – |
